In brackets after ≈: the same amount, converted by molar mass.
Assays:
[1] = In vitro drug release, dialysis bag diffusion method; format: physicochemical; conditions: after 6 h; PBS pH 7.4, 37 °C
Experimental: The dissolution medium was phosphate buffer saline (PBS) (pH 7.4), which mimics physiological pH. […] Aliquots of 3 mL were taken from the dissolution medium at predefined time points at 0.5, 1, 2, 3, 4, 5, 6, 7, 8, 10, 12, 24, 36, and finally at 48 h. The sink conditions were maintained by immediately replenishing the equivalent volume of fresh PBS (pH 7.4) after each aliquot withdrawal. […] The study was performed in triplicate and was graphically presented as the cumulative percentage of drug release versus time. Data from the in vitro drug release study was further analyzed using different kinetic models to determine the drug release pattern.
Statistical analysis of in vitro drug release kinetic models was carried out using one-way analysis of variance (ANOVA) followed by Tukey’s Multiple Comparison post hoc test; p ≤ 0.05. […] Analyses were done using GraphPad Prism 6.01 (San Diego, CA, USA).

[2] = tested on: Staphylococcus aureus; experiment: MIC by broth microdilution method; format: cell-based; conditions: Staphylococcus aureus (ATCC® 25922)
Experimental: (§1) The MIC was determined by the broth microdilution method. […] Stock solutions were serially diluted (2-fold) in sterile Müeller Hinton broth (MHB) with a dilution range of 0.125 to 150 µg/mL. Overnight culture turbidity was adjusted equivalent to the 0.5 McFarland standard and then diluted to give a final concentration equivalent to 10^6 CFU/mL [30]. One hundred microliters of the adjusted bacterial culture were added to an equal volume of the tested dilutions in a 96-well microtiter plate. The plates were then incubated at 37 °C for 24 h.
(§2) The MIC was recorded as the lowest concentration of an antimicrobial agent, which gave no visible growth. […] The experiment was conducted in triplicate. The mean as well as standard deviation were recorded.

[3] = tested on: methicillin-resistant Staphylococcus aureus (MRSA); experiment: MIC by broth microdilution method; format: cell-based
Experimental: as §1, §2

[4] = target: T1, human leukocyte elastase (Homo sapiens, UniProt P08246); experiment: Anti-elastase assay; format: biochemical
T1 construct: purchased Nawah Scientific Inc., Cairo, Egypt
T1 sequence (P08246 30-267): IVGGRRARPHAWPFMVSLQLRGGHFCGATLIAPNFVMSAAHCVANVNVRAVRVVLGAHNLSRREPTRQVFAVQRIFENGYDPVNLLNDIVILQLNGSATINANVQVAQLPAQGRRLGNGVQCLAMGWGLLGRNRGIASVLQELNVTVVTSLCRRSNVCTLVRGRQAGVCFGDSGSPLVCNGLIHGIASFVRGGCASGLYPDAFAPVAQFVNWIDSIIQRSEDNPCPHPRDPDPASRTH
Experimental: The anti-elastase, anti-collagenase, and anti-tyrosinase activities were assessed following the method reported by Mostafa et al. [32]. […] For the anti-elastase assay, human leukocyte elastase (1 µg/mL) was incubated with N-2-hydroxyethylpiperazine-N-2-ethane sulfonic acid (HEPES) buffer (pH 7.5). Each of the tested samples or the standard inhibitor N-Methoxysuccinyl-Ala-Ala-Pro-chloromethyl ketone (1.4 mg/mL) was added into the 96-well plate for 20 min at 25 °C before the addition of 100 µL substrate of 1 mM N-Methoxysuccinyl-Ala-Ala-Pro-Val-p-nitroanilide. Afterward, the optical density was measured after 40 min of incubation at 405 nm against a blank well lacking the test sample/inhibitor. Various concentrations of the tested samples (25–300 µg/mL) were used.
Moreover, in vitro skin-related enzyme inhibitory assays were carried out in triplicates, and results were expressed as mean ± standard deviation. A non-linear regression curve was used to calculate IC50. An unpaired t-test was used for statistical comparison between the two groups. p < 0.05 is considered statistically significant. […]

[5] = target: collagenase type 1 from Clostridium histolyticum; experiment: Anti-collagenase assay; format: biochemical; conditions: +ve control = EDTA
Experimental: For the anti-collagenase, collagenase type 1 from Clostridium histolyticum (1 mg/mL) buffer (pH 7.4) along with tested samples or standard inhibitor ethylenediamine tetraacetic acid (EDTA) (1.4 mg/mL) were incubated at 37 °C for 20 min prior to the addition of 100 µL of the substrate 2-furanacryloyl-l-leucylglycyl-l-prolyl-l-alanine (FALGPA). The mixture was then incubated at 37 °C for an additional 1 h before the addition of 200 µL of 2% ninhydrin in 200 mM citrate buffer (pH 5) and placed in a water bath for 5 min. Afterward, the solution was left to cool down completely. Afterwards 200 µL of 50% isopropanol was added, and the optical densities were analyzed at 540 nm. Various concentrations of the tested samples (25–300 µg/mL) were used.

[6] = target: mushroom tyrosinase; experiment: Anti-tyrosinase assay; format: biochemical
Experimental: For the anti-tyrosinase assay, mushroom tyrosinase (5600 units/mL) was incubated at 37 °C for 15 min along with tested samples or standard inhibitor kojic acid (1.4 mg/mL) before the addition of the substrate 1 mM L-DOPA. Afterward, the optical density of the formed dopachrome was analyzed at 475 nm. Various concentrations of the tested samples (75–500 µg/mL) were used. All tests were conducted in triplicate. The enzyme inhibition activity was expressed in percentage using the following equation: (5) Enzyme inhibition activity %=Optical density of control – Optical density of sample/Optical density of control×100
Statistical analysis of in vitro drug release kinetic models was carried out using one-way analysis of variance (ANOVA) followed by Tukey’s Multiple Comparison post hoc test; p ≤ 0.05. Moreover, in vitro skin-related enzyme inhibitory assays were carried out in triplicates, and results were expressed as mean ± standard deviation. A non-linear regression curve was used to calculate IC50. An unpaired t-test was used for statistical comparison between the two groups. p < 0.05 is considered statistically significant. Analyses were done using GraphPad Prism 6.01 (San Diego, CA, USA).

[7] = tested on: RBCs; conditions: cited from earlier work
[8] = susceptible ≤4 µg/mL, resistant ≥8 µg/mL

SMILES: CC(=O)NC[C@H]1CN(c2ccc(N3CCOCC3)c(F)c2)C(=O)O1 [LNZ, Linezolid]
- percentage LNZ released [1]: ~98 ± 0.5%
- MIC ([2]; ATCC25922, 37 °C, 24 h, read-out: Minimum Inhibitory Concentration (MIC)): 4 µg/mL (≈ 11.9 µM)
- Minimum Inhibitory Concentration (MIC) ([2]; 37 °C, 24 h): 4 ± 0.00 µg/mL
- susceptibility class (CLSI breakpoints) [2, 8]: S (S: sensitive)
- Minimum Inhibitory Concentration (MIC) ([3]; 37 °C, 24 h): 4 ± 0.00 µg/mL
- MIC ([3]; Staphylococcus aureus, 37 °C, 24 h, read-out: Minimum Inhibitory Concentration (MIC)): 4 µg/mL (≈ 11.9 µM)
- susceptibility class (CLSI breakpoints) [3, 8]: S (S: sensitive)
- IC50 ([4]; +ve control = N-Methoxysuccinyl-Ala-Ala-Pro-chloromethyl ketone, read-out: Anti-Elastase IC50 (µg/mL) (converted)): 170 µM
- Anti-Elastase % Inhibition ([4]; samples tested 25–300 µg/mL, concentration of this value not stated, +ve control = N-Methoxysuccinyl-Ala-Ala-Pro-chloromethyl ketone (1.4 mg/mL)): 88.00 ± 1.35%
- Anti-Collagenase IC50 [5]: 335.34 ± 2.09 µg/mL
- Anti-Tyrosinase IC50 ([6]; +ve control = kojic acid): 363.50 ± 2.08 µg/mL
- Anti-Tyrosinase % Inhibition ([6]; samples tested 75–500 µg/mL, concentration of this value not stated, +ve control = kojic acid (1.4 mg/mL)): 65.00 ± 1.63%
- hemolysis percentage [7]: 14%

Source: publication PMC9862409 (Pharmaceutics, 2023)
